Reference: patent US20250074913A1, “PYRAZOLE DERIVATIVES AS STING AGONISTS” (Hoffmann-La Roche Inc., priority 2022, published 2025)
Like-named read-outs stand apart in the source and are kept apart here.

Assays:
[1] = system: interferon regulatory factor (IRF) pathway in THP1-Dual™ cells; experiment: THP1-Dual reporter gene assay (Agonist_THP1_EC50); assay type: cell-based; conditions: Homo sapiens, 20-24 hrs compound treatment, Lucia luciferase (IRF) readout
In short: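 Human THP-1 monocytes with Lucia luciferase under ISG54 minimal promoter plus five ISREs; ~33,000 cells/well with serially diluted compound, final 1% DMSO, 20-24 h at 37 °C. Supernatant Lucia luciferase read by QUANTI-Luc Gold luminescence; viability by CCK-8, A450 after 2 h.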

human PBMC = experiment: hPBMC cytokine release assay (Luminex, IFN-β); assay type: cell-based; conditions: read-out: Agonist_hPBMC_IFN-β_EC50
Procedure: This is the cytokines concentration detection with Luminex assay for human PBMC supernatant. Human peripheral blood mononuclear cells (PBMC) are treated by compounds with appropriate time. Multiple cytokines are released in the supernatant in response to the compound stimulation. Luminex assay can measure the cytokines concentration in supernatant and the compounds activity on human PBMC can be evaluated.
Frozen PBMC was thawed and cultured in PRMI1640 (GIBCO 11875-093) whole medium with […] Heat inactivated-FBS (HI—FBS), 1% NEAA, […] in CO2 incubator overnight. Cells were centrifuged at 400×g for 5 minutes at 4° C. and the pellet was re-suspended with complete RPMI1640 medium to concentration of 1×10^6 cells/ml in cell culture flask T75 (Thermo Fisher Scientific). Compounds were serially diluted with DMSO and distributed to 96-well flat bottom cell plate (Corning 3599) with Echo555. 90 μL/well PBMC cells were seeded into the plates with Multidrop (Thermo Fisher Scientific). After 24 hours of incubation in CO2 incubator, cells were centrifuged at 400×g for 5 minutes at room temperature, 80 μL supernatant each well was collected for cytokines release test with luminex assay of Human custom ProcartaPlex 5-plex kit (Thermo Fisher Scientific PPX-05). 10 μL supernatant or standards were added to a mixture of color-coded beads, 5 μL Biotinylated detection antibodies specific to the analytes of interest were added and formed an antibody-antigen sandwich. 10 μL Phycoerythrin (PE)-conjugated streptavidin is added to the plate and then read signal of each well on the Luminex 200™. The raw data was analyzed by Millipore Analyst Software and cytokine concentrations were generated accordingly. The EC50 of corresponding cytokine such as interferon-β (IFN-β) was calculated by the 4-parameter sigmoidal concentration response model fitting.

[2] = Single dose pharmacokinetics (SDPK) in female C57BL/6J mice; assay type: in vivo; conditions: mouse, 1 mg/kg, iv, plasma
Procedure: This is the single dose pharmacokinetics (PK) study in female C57/BL6 mice. The purpose of this study was to determine the pharmacokinetics of selected compounds following a single intravenous bolus injection in female C57BL/6J mice. Briefly, 3 female C57BL/6J mice (available from Shanghai Lingchang Biotechnology Co., Ltd) were treated with a single dose of compound intravenously at 1 mg/kg (IV). Blood samples were collected at 5 min, 15 min, 30 min, 1 h, 2 h, 4 h, 7 h and 24 h post-dose. Blood samples were placed on wet ice until centrifugation to obtain plasma samples. The compound concentration in plasma samples was determined using LC-MS/MS method. The pharmacokinetic parameters were calculated by non-compartmental analysis.

[3] = 24 hours incubation, IFN-β in supernatant
[4] = female, C57BL/6J, prior art compounds (Table 4)

Structure (SMILES) | EC50 [1] [nM] | EC50 (human PBMC; [3]) [nM] | also measured
CCCn1nc(C)c(O)c1-c1n[nH]c(-c2c(F)c(C(N)=O)n3cc(C)ncc23)n1 [Example 79, 7-fluoro-8-[3-(4-hydroxy-5-methyl-2-propyl-pyrazol-3-yl)-1H-1,2,4-triazol-5-yl]-3-methyl-pyrrolo[1,2-a]pyrazine-6-carboxamide] | 5 | 22 | AUC(0-t) ([2]; female C57BL/6J mice): 150 ng·h/mL; C0 ([2]; female C57BL/6J mice): 2200 ng/mL; clearance ([2]; female C57BL/6J mice): 111 mL/min/kg
COc1ccc(CCn2nc(C)c(O)c2-c2n[nH]c(-c3nc(C(N)=O)n4cc(C)ncc34)n2)cc1 [Example 70, 1-[3-[4-hydroxy-2-[2-(4-methoxyphenyl)ethyl]-5-methyl-pyrazol-3-yl]-1H-1,2,4-triazol-5-yl]-6-methyl-imidazo[1,5-a]pyrazine-3-carboxamide] | 6 | 10 | –
CCCCn1nc(C)c(O)c1-c1n[nH]c(-c2nc(C(N)=O)n3cc(C)ncc23)n1 [Example 77, 1-[3-(2-butyl-4-hydroxy-5-methyl-pyrazol-3-yl)-1H-1,2,4-triazol-5-yl]-6-methyl-imidazo[1,5-a]pyrazine-3-carboxamide] | 17 | 20 | –
Cc1cc2c(C(N)=O)nn(-c3nc(-c4c(O)c(C)nn4CCc4ccccc4)n[nH]3)c2cn1 [Example 40, 1-[3-[4-hydroxy-5-methyl-2-(2-phenylethyl)pyrazol-3-yl]-1H-1,2,4-triazol-5-yl]-5-methyl-pyrazolo[3,4-c]pyridine-3-carboxamide] | 11 | 46 | AUC(0-t) ([2]; female C57BL/6J mice): 151 ng·h/mL; C0 ([2]; female C57BL/6J mice): 1600 ng/mL; clearance ([2]; female C57BL/6J mice): 114 mL/min/kg
CCCn1nc(C)c(O)c1-c1n[nH]c(-n2nc(C(N)=O)c3cc(C)ncc32)n1 [Example 31, 1-[3-(4-hydroxy-5-methyl-2-propyl-pyrazol-3-yl)-1H-1,2,4-triazol-5-yl]-5-methyl-pyrazolo[3,4-c]pyridine-3-carboxamide] | 19 | 32 | AUC(0-t) ([2]; female C57BL/6J mice): 597 ng·h/mL; C0 ([2]; female C57BL/6J mice): 5500 ng/mL; clearance ([2]; female C57BL/6J mice): 30 mL/min/kg
Cc1cc2c(C(N)=O)nn(-c3nc(-c4c(O)c(C)nn4CCc4ccc(F)cc4)n[nH]3)c2cn1 [Example 52, 1-[3-[2-[2-(4-fluorophenyl)ethyl]-4-hydroxy-5-methyl-pyrazol-3-yl]-1H-1,2,4-triazol-5-yl]-5-methyl-pyrazolo[3,4-c]pyridine-3-carboxamide] | 13 | 18 | –
CC#CCCn1nc(C)c(O)c1-c1n[nH]c(-c2nc(C(N)=O)cc3c2cnn3C)n1 [Example 45, 4-[3-(4-hydroxy-5-methyl-2-pent-3-ynyl-pyrazol-3-yl)-1H-1,2,4-triazol-5-yl]-1-methyl-pyrazolo[4,3-c]pyridine-6-carboxamide] | 9 | 9 | –
CCCn1nc(C)c(O)c1-c1n[nH]c(-c2nc(C(N)=O)n3cc(C)ncc23)n1 [Example 80, 1-[3-(4-hydroxy-5-methyl-2-propyl-pyrazol-3-yl)-1H-1,2,4-triazol-5-yl]-6-methyl-imidazo[1,5-a]pyrazine-3-carboxamide] | 20 | 42 | –
CCCCn1nc(C)c(O)c1-c1nc(-c2nc(C(N)=O)n3cc(C)ncc23)co1 [Example 86, 1-[2-(2-butyl-4-hydroxy-5-methyl-pyrazol-3-yl)oxazol-4-yl]-6-methyl-imidazo[1,5-a]pyrazine-3-carboxamide] | 16 | 30 | –
CCCn1nc(C)c(O)c1-c1nc(-c2c(F)c(C(N)=O)n3cc(C)ncc23)co1 [Example 93, 7-fluoro-8-[2-(4-hydroxy-5-methyl-2-propyl-pyrazol-3-yl)oxazol-4-yl]-3-methyl-pyrrolo[1,2-a]pyrazine-6-carboxamide] | 6 | 9 | –
CCn1nc(C)c(O)c1-c1nnc(-c2nc(C(N)=O)cc3c2cnn3C)[nH]1 [AC01, reference compound] | – | – | EC50 (human PBMC; prior art compounds (Table 4), IFN-β): 28 nM; AUC(0-t) [2, 4]: 102 ng·h/mL; C0 [2, 4]: 997 ng/mL; clearance [2, 4]: 170 mL/min/kg
CCCn1nc(C)c(O)c1-c1nc(-n2nc(C(N)=O)c3cc(C)ncc32)n(C)n1 [Example 84, 1-[5-(4-hydroxy-5-methyl-2-propyl-pyrazol-3-yl)-2-methyl-1,2,4-triazol-3-yl]-5-methyl-pyrazolo[3,4-c]pyridine-3-carboxamide] | 34 | 18 | –
CCCn1nc(C)c(O)c1-c1nc(-n2nc(C(N)=O)c3cc(C)ncc32)co1 [Example 58, 1-(2-(4-hydroxy-3-methyl-1-propyl-1H-pyrazol-5-yl)oxazol-4-yl)-5-methyl-1H-pyrazolo[3,4-c]pyridine-3-carboxamide] | 6 | 17 | –
CCCn1nc(C)c(O)c1-c1nc(-n2nc(C(N)=O)c3cc(C)ncc32)c(CO)o1 [Example 83, 1-[5-(hydroxymethyl)-2-(4-hydroxy-5-methyl-2-propyl-pyrazol-3-yl)oxazol-4-yl]-5-methyl-pyrazolo[3,4-c]pyridine-3-carboxamide] | 22 | 23 | –
CCCCn1nc(C)c(O)c1-c1n[nH]c(-c2c(F)c(C(N)=O)n3cc(C)ncc23)n1 [Example 76, 8-[3-(2-butyl-4-hydroxy-5-methyl-pyrazol-3-yl)-1H-1,2,4-triazol-5-yl]-7-fluoro-3-methyl-pyrrolo[1,2-a]pyrazine-6-carboxamide] | 15 | 14 | –
Cc1cn2c(C(N)=O)nc(-c3nc(-c4c(O)c(C)nn4CCc4ccccc4)n[nH]3)c2cn1 [Example 53, 1-[3-[4-hydroxy-5-methyl-2-(2-phenylethyl)pyrazol-3-yl]-1H-1,2,4-triazol-5-yl]-6-methyl-imidazo[1,5-a]pyrazine-3-carboxamide] | 12 | 26 | –
Cc1cc2c(C(N)=O)nn(-c3coc(-c4c(O)c(C)nn4CCC(F)F)n3)c2cn1 [Example 67, 1-(2-(1-(3,3-difluoropropyl)-4-hydroxy-3-methyl-1H-pyrazol-5-yl)oxazol-4-yl)-5-methyl-1H-pyrazolo[3,4-c]pyridine-3-carboxamide] | 18 | 24 | –
CCCn1nc(C)c(O)c1-c1n[nH]c(-c2cc(C(N)=O)n3cc(C)ncc23)n1 [Example 91, 8-[3-(4-hydroxy-5-methyl-2-propyl-pyrazol-3-yl)-1H-1,2,4-triazol-5-yl]-3-methyl-pyrrolo[1,2-a]pyrazine-6-carboxamide] | 16 | 38 | –
Cc1cc2c(C(N)=O)nn(-c3nc(-c4c(O)c(C)nn4CCc4cccc(F)c4)n[nH]3)c2cn1 [Example 55, 1-(3-(1-(3-fluorophenethyl)-4-hydroxy-3-methyl-1H-pyrazol-5-yl)-1H-1,2,4-triazol-5-yl)-5-methyl-1H-pyrazolo[3,4-c]pyridine-3-carboxamide] | 13 | 32 | –
CCn1nc(C)c(O)c1-c1n[nH]c(-c2c(F)c(C(N)=O)n3cc(C)ncc23)n1 [Example 4, 8-[3-(2-ethyl-4-hydroxy-5-methyl-pyrazol-3-yl)-1H-1,2,4-triazol-5-yl]-7-fluoro-3-methyl-pyrrolo[1,2-a]pyrazine-6-carboxamide] | 162 | – | AUC(0-t) ([2]; female C57BL/6J mice): 122 ng·h/mL; C0 ([2]; female C57BL/6J mice): 1720 ng/mL; clearance ([2]; female C57BL/6J mice): 137 mL/min/kg
CCCn1nc(C)c(O)c1-c1nc(-c2cc(C(N)=O)n3cc(C)ncc23)co1 [Example 94, 8-[2-(4-hydroxy-5-methyl-2-propyl-pyrazol-3-yl)oxazol-4-yl]-3-methyl-pyrrolo[1,2-a]pyrazine-6-carboxamide] | 15 | 6 | –
